The results in this text go back to patent US20170121687A1, “METHODS OF CELLULAR REPROGRAMMING” (Agency for Science, Technology and Research, priority 2014, published 2017).

This experiment deals with IMR90. The experiment in a line: Integrin ligation step with other extracellular matrices and growth factors after antibody induction. Particulars: FIG. 12-15. Type of experiment: cell-based, human. How it is done: Cells were detached using conventional cell culture techniques and 60000 suspended cells in 100 μL media were incubated with 2 μg of each of the following antibodies—Anti-Integrin alpha V [272-17E6] (Abcam, USA), Anti-Integrin alpha 5 [P1D6]—Azide free (Abcam, USA), Anti-Integrin beta 3 antibody [25E11], Anti-Integrin αV/β5 (P1F6) L (Santa Cruz Biotechnology, USA), Anti-Integrin αVβ6, clone 10D5 (Merck, USA)—for 30 minutes in a 37° C. incubator. Control antibody used was normal mouse IgG1 antibody (Santa Cruz Biotechnology, USA). The volume of the cell suspension was brought up to 250 μL for subsequent seeding in a 48-well tissue culture plate. Two days after antibody treatment, extracellular matrix was added into the media. Reprogramming of U251 cells followed a modified procedure, where a 3-antibody combination comprising Anti-Integrins αv, αvβ5 and αvβ6 was used. Two days after antibody treatment, the cells were transferred to ECM that had been pre-coated onto the culture wells. Extracellular matrices used are basement membrane matrix, Geltrex (Life Technologies, USA), laminin 332 and laminin 511 (Biolamina, Sweden). One day after addition of extracellular matrix, the media was changed to one of the following growth factors-supplemented media—1) SKP media made up of DMEM/F12 (Life Technologies, USA) supplemented with 1× B27 supplement (Life Technologies, USA), 40 ng/mL bFGF, 20 ng/mL EGF (Life Technologies, USA); 2) mTESR2 (Stemcell Technologies, USA).
Cells were lysed for RNA using TRIzol® Reagent (Invitrogen, USA) following manufacturer's instructions. Purified RNA was reverse transcribed into cDNA using iScript™ cDNA synthesis kit (Bio-Rad, USA). The reaction was carried out in a 20 μL volume containing 4 μL 5× iScript reaction mix, 1 μL iScript reverse transcriptase, RNA template (≦1000 ng total RNA) and nuclease free water (variable). The complete reaction mix was incubated for at 5 minutes at 25° C., 30 minutes at 42° C., 5 minutes at 85° C. followed by holding at 4° C. (optional).
Reaction was performed on iQ5 multi-colour real-time PCR detection system (Bio-Rad, USA) using the iTaq™ Universal SYBR® Green supermix (Bio-Rad, USA). The 20 μL volume reaction component includes 10 μL iTaq™ Universal SYBR® Green supermix, 1 μL of primer mix (5 μM forward primer, 5 μM reverse primer), 1 to 100 ng template and nuclease free water (variable).
The reaction conditions were as follows: 30 sec at 95° C., followed by 40 cycles of 15 sec at 95° C. and 30 sec at 60° C. […] Relative quantization of target mRNA expression, normalized to an endogenous control and relative to a calibrator, was calculated using the mathematical expression for fold change 2-ΔΔCt (fold change).

Regarding HGF: hepatocyte growth factor, the “expression of MET and stemness markers” value is “reduced expression of both MET and stemness markers”.

Regarding “Laminin 511: extracellular matrix (Biolamina, Sweden) used during the integrin ligation step”, the “expression of MET and stemness markers” value is “positively influenced”.

Consider “Laminin 521: extracellular matrix used during the integrin ligation step”, for which the “expression of MET and stemness markers” value is reported as “positively influenced”.

B1: KGF: keratinocyte growth factor (protein, UniProt P21781 32-194, looked up)
Fibroblast growth factor 7: CNDMTPEQMATNVNCSSPERHTRSYDYMEGGDIRVRRLFCRTQWYLRIDKRGKVKGTQEMKNNYNIMEIRTVAVGIVAIKGVESEFYLAMNKEGKLYAKKECNEDCNFKELILENHYNTYASAKWTHNGGEMFVALNQKGIPVRGKKTKKEQKTAHFLPMAIT
As for B1, the “expression of MET and stemness markers” value was “did not appear to significantly affect”.
